According to publication PMC2915626, “Isolation and Characterization of a Defensin-Like Peptide (Coprisin) from the Dung Beetle, Copris tripartitus” (International Journal of Peptides, 2009):
Ends that are not written are not given here.

Experiments:
E. coli = assay: Broth microdilution assay (MIC); type: cell-based, Escherichia coli
Procedure: (§1) In addition to a radial diffusion assay, antibacterial activities of the peptides were also tested by a broth microdilution assay against E. coli and S. aureus. Briefly, bacteria were grown overnight in TSB to the onset of stationary phase at 37°C with shaking at 200 rpm. The cultures were diluted in a fresh TSB to the final concentration of 2 × 10^4 CFU/mL. A stock solution of each peptide was prepared in 0.01% acetic acid at 640 μg/mL. The peptide solution was then serially diluted in 0.01% acetic acid to 2 μg/mL. After 90 μL aliquots of the bacterial suspension were dispensed into each well of a 96-well polypropylene microtiter plate, 10 μL of peptide solution was added. The antibacterial activities of peptides were assessed by measuring visible turbidity in each well of the plate after 18 hours of incubation at 37°C. MIC was expressed as intervals (a to b), where a was the highest concentration tested at which bacteria were still growing and b was the lowest concentration that caused complete growth inhibition.

S. aureus = assay: Broth microdilution assay (MIC); type: cell-based, Staphylococcus aureus
Procedure: as §1

[1] = broth microdilution in TSB, 2 × 10^4 CFU/mL, 18 hours at 37°C, visible turbidity, MIC as interval a to b (a highest conc. with growth, b lowest conc. with complete inhibition)

Substance	MIC (μg/mL) E. coli (E. coli; 18 h)	MIC (μg/mL) S. aureus (S. aureus; 18 h)	MIC (μg/mL) E. coli (E. coli; [1])	MIC (μg/mL) S. aureus (S. aureus; [1])	antibacterial activity against Escherichia coli (in words) (E. coli; statement of the abstract)	antibacterial activity against Staphylococcus aureus (in words) (S. aureus; statement of the abstract)
LHRIALRKK-NH2 [CopA2]	>64 µg/mL	>64 µg/mL	–	–	–	–
LHCIALRKK-NH2 [CopN5(22–30)]	–	–	8 to 16 µg/mL	>64 µg/mL	–	–
LLCIALRKK-NH2 [CopA3]	4 to 8 µg/mL	4 to 8 µg/mL	–	–	potent antibacterial activities	potent antibacterial activities
LRCIALRKK-NH2 [CopA4]	16 to 32 µg/mL	>64 µg/mL	–	–	–	–
LHLIALRKK-NH2 [CopA1]	>64 µg/mL	>64 µg/mL	–	–	–	–
